From US11136301B2, “Broad spectrum antiviral compounds and uses thereof” (The Regents Of The University Of California, priority 2015, dated 2021)
Like-named read-outs stand apart in the source and are kept apart here.

Tested on: wild-type HIV-1 (HIV-1LAI) in H9 cells (non-permissive)
Experiment: microbe, parasite or virus in culture
Type: cell-based
[1] = Human immunodeficiency virus 1, H9, read-out: Antiviral activity (IC50 μM) H9 cells, Table 5, wild-type HIV-1, non-permissive H9 cells
[2] = Human immunodeficiency virus 1, H9, read-out: Antiviral activity (IC50 μM) H9 cells, Table 8, wild-type HIV-1, non-permissive H9 cells
[3] = Human immunodeficiency virus 1, H9, read-out: Antiviral activity (IC50 μM) H9 cells, wild-type HIV-1 (HIV-1LAI), H9 cells (non-permissive), RT activity in culture supernatants, compounds 1 to 50 μM
[4] = read-out: Antiviral activity (IC50 μM) H9 cells, Table 5, wild-type HIV-1, non-permissive H9 cells
[5] = read-out: Antiviral activity (IC50 μM) H9 cells, Table 8, wild-type HIV-1, non-permissive H9 cells
[6] = read-out: Antiviral activity (IC50 μM) H9 cells, wild-type HIV-1 (HIV-1LAI), H9 cells (non-permissive), RT activity in culture supernatants, compounds 1 to 50 μM
[7] = read-out: Antiviral activity (IC50 μM) H9, Table 2, wild-type HIV-1, non-permissive H9 cells
[8] = Human immunodeficiency virus 1, H9, read-out: Antiviral activity (IC50 μM) H9 Cells, Table 4, wild-type HIV-1, non-permissive H9 cells
[9] = Human immunodeficiency virus 1, H9, read-out: Antiviral activity (IC50 μM) H9 Cells, Table 7, wild-type HIV-1, non-permissive H9 cells

Structure (SMILES)	IC50 [1]	IC50 [2]	IC50 [3]	IC50 [4]	IC50 [5]	IC50 [6]	also measured
COc1ccc(Sc2ccccc2-c2cn(-c3ccccc3OC)nn2)cc1 [Compound 2cx, 1-(2-Methoxyphenyl)-4-(2-((4-methoxyphenyl)thio)phenyl)-1H-1,2,3-triazole]	13.6 µM	13.6 µM	13.6 µM				
COc1cccc(F)c1-n1cc(-c2ccccc2Sc2ccc(C(=O)O)cc2)nn1 [Compound 7gx, 2-Hydroxy-N,N,N-trimethylethanaminium 4-((2-(1-(2-fluoro-6-methoxyphenyl)-1H-1,2,3-triazol-4-yl)phenyl)thio)benzoate]				> 50 µM	> 50 µM	> 50 µM	
COc1cccc(OC)c1-n1cc(-c2ccccc2S(=O)(=O)c2ccc(C(F)(F)F)cc2)nn1 [Compound 6dy, 1-(2,6-Dimethoxyphenyl)-4-(2-((4-(trifluoromethyl)phenyl)sulfonyl)phenyl)-1H-1,2,3-triazole]	> 50 µM	> 50 µM	> 50 µM				
COc1ccc(-n2cc(-c3ccccc3S(=O)(=O)c3ccc(C(=O)O)cc3)nn2)c(OC)c1 [Compound 4fy, 4-((2-(1-(2,4-Dimethoxyphenyl)-1H-1,2,3-triazol-4-yl)phenyl)sulfonyl)benzoic Acid]	> 50 µM	> 50 µM	> 50 µM				
COc1ccc(OC)c(-n2cc(-c3ccccc3S(=O)(=O)c3ccc(C(F)(F)F)cc3)nn2)c1 [Compound 5dy, 1-(2,5-Dimethoxyphenyl)-4-(2-((4-(trifluoromethyl)phenyl)sulfonyl)phenyl)-1H-1,2,3-triazole]	4.3 µM	4.3 µM	4.3 µM				
COc1ccc(-n2cc(-c3ccccc3S(=O)(=O)c3ccc(N)cc3)nn2)c(OC)c1 [Compound 4ey, 4-((2-(1-(2,4-Dimethoxyphenyl)-1H-1,2,3-triazol-4-yl)phenyl)sulfonyl)aniline]	> 50 µM	> 50 µM	> 50 µM				
COc1ccc(-n2cc(-c3ccccc3Sc3ccc(N)cc3)nn2)c(OC)c1 [Compound 4ex, 4-((2-(1-(2,4-Dimethoxyphenyl)-1H-1,2,3-triazol-4-yl)phenyl)thio)aniline]	> 50 µM	> 50 µM	> 50 µM				
COc1cccc(-n2cc(-c3ccccc3S(=O)(=O)c3ccc(C(=O)O)cc3)nn2)c1OC [Compound 3gy, 2-Hydroxy-N,N,N-trimethylethanaminium 4-((2-(1-(2,3-dimethoxyphenyl)-1H-1,2,3-triazol-4-yl)phenyl)sulfonyl)benzoate]				> 50 µM	> 50 µM	> 50 µM	IC50 [7]: > 50 µM
COc1cccc(-n2cc(-c3ccccc3Sc3ccc(C(=O)O)cc3)nn2)c1OC [Compound 3gx, 2-Hydroxy-N,N,N-trimethylethanaminium 4-((2-(1-(2,3-dimethoxyphenyl)-1H-1,2,3-triazol-4-yl)phenyl)thio)benzoate]				4.3 µM	4.3 µM	4.3 µM	IC50 [7]: 4.3 µM; IC50 (read-out: Antiviral activity (IC50 μM) H9 Cells, Table 4, wild-type HIV-1, non-permissive H9 cells): 4.3 µM; IC50 (read-out: Antiviral activity (IC50 μM) H9 Cells, Table 7, wild-type HIV-1, non-permissive H9 cells): 4.3 µM
COc1cccc(OC)c1-n1cc(-c2ccccc2S(=O)(=O)c2ccc(C(=O)O)cc2)nn1 [Compound 6gy, 2-Hydroxy-N,N,N-trimethylethanaminium 4-((2-(1-(2,6-dimethoxyphenyl)-1H-1,2,3-triazol-4-yl)phenyl)sulfonyl)benzoate]				> 50 µM	> 50 µM	> 50 µM	IC50 [7]: > 50 µM
COc1ccccc1-n1cc(-c2ccccc2Sc2ccc(C(=O)O)cc2)nn1 [Compound 2gx, 2-Hydroxy-N,N,N-trimethylethanaminium 4-((2-(1-(2-methoxyphenyl)-1H-1,2,3-triazol-4-yl)phenyl)thio)benzoate]				> 50 µM	> 50 µM	> 50 µM	IC50 [7]: > 50 µM
COc1cccc(OC)c1-n1cc(-c2ccccc2Sc2ccc(C(F)(F)F)cc2)nn1 [Compound 6dx, 1-(2,6-Dimethoxyphenyl)-4-(2-((4-(trifluoromethyl)phenyl)thio)phenyl)-1H-1,2,3-triazole]	5.3 µM	5.3 µM	5.3 µM				
COc1ccc(Sc2ccccc2-c2cn(-c3c(F)cccc3OC)nn2)cc1 [Compound 7cx, 1-(2-Fluoro-6-methoxyphenyl)-4-(2-((4-methoxyphenyl)thio)phenyl)-1H-1,2,3-triazole]	> 50 µM	> 50 µM	> 50 µM				
COc1ccc(Sc2ccccc2-c2cn(-c3c(OC)cccc3OC)nn2)cc1 [Compound 6cx, 1-(2,6-Dimethoxyphenyl)-4-(2-((4-methoxyphenyl)thio)phenyl)-1H-1,2,3-triazole]	> 50 µM	> 50 µM	> 50 µM				
COc1ccc(-n2cc(-c3ccccc3Sc3ccc(C(=O)O)cc3)nn2)c(OC)c1 [Compound 4gx, 2-Hydroxy-N,N,N-trimethylethanaminium 4-((2-(1-(2,4-dimethoxyphenyl)-1H-1,2,3-triazol-4-yl)phenyl)thio)benzoate]				> 50 µM	> 50 µM	> 50 µM	
COc1ccc(Sc2ccccc2-c2cn(-c3cccc(OC)c3OC)nn2)cc1 [Compound 3cx, 1-(2,3-Dimethoxyphenyl)-4-(2-((4-methoxyphenyl)thio)phenyl)-1H-1,2,3-triazole]	4.7 µM	4.7 µM	4.7 µM				IC50 [8]: 4.7 µM; IC50 [9]: 4.7 µM
COc1ccc(Sc2ccccc2-c2cn(-c3ccc(OC)cc3OC)nn2)cc1 [Compound 4cx, 1-(2,4-Dimethoxyphenyl)-4-(2-((4-methoxyphenyl)thio)phenyl)-1H-1,2,3-triazole]	> 50 µM	> 50 µM	> 50 µM				
COC(=O)c1ccc(S(=O)(=O)c2ccccc2-c2cn(-c3ccc(OC)cc3OC)nn2)cc1 [Compound 4by, Methyl 4-((2-(1-(2,4-dimethoxyphenyl)-1H-1,2,3-triazol-4-yl)phenyl)sulfonyl)benzoate]	7.6 µM	7.6 µM	7.6 µM				
COc1ccc(OC)c(-n2cc(-c3ccccc3Sc3ccc(C(=O)O)cc3)nn2)c1 [Compound 5gx, 2-Hydroxy-N,N,N-trimethylethanaminium 4-((2-(1-(2,5-dimethoxyphenyl)-1H-1,2,3-triazol-4-yl)phenyl)thio)benzoate]				> 50 µM	> 50 µM	> 50 µM	
COc1cccc(F)c1-n1cc(-c2ccccc2Sc2ccc(C(F)(F)F)cc2)nn1 [Compound 7dx, 1-(2-Fluoro-6-methoxyphenyl)-4-(2-((4-(trifluoromethyl)phenyl)thio)phenyl)-1H-1,2,3-triazole]	10 µM	10 µM	10 µM				
COc1cccc(OC)c1-n1cc(-c2ccccc2Sc2ccc(C(=O)O)cc2)nn1 [Compound 6gx, 2-Hydroxy-N,N,N-trimethylethanaminium 4-((2-(1-(2,6-dimethoxyphenyl)-1H-1,2,3-triazol-4-yl)phenyl)thio)benzoate]				52 µM	52 µM	52 µM	IC50 [7]: 52 µM
COc1cccc(OC)c1-n1cc(-c2ccccc2Sc2ccc(N)cc2)nn1 [Compound 6ex, 4-((2-(1-(2,6-Dimethoxyphenyl)-1H-1,2,3-triazol-4-yl)phenyl)thio)amine]	1.5 µM	1.5 µM	1.5 µM				IC50 [8]: 1.5 µM; IC50 [9]: 1.5 µM; IC50 (Human immunodeficiency virus 1, H9, read-out: IC50, anti-HIV-1 activity, non-permissive H9 cells): 1 to 3 µM
